Read-outs that look alike come from different tables or passages of the source. Peptide text beside a SMILES is read from it. * marks the point of attachment. Cbz = O=C(OCc1ccccc1)* A value given as a limit tells only on which side of the number the result lay.

Assay [1] deals with CCR2-HaloTag-HiBiT. Put plainly: Lytic HiBiT assay with inhibitor pretreatment (2 h) then vehicle or HaloPROTAC3 (3 h). To be noted: 5 µg plasmid; for HaloPROTAC3-mediated CCR2 degradation after pretreatment with the inhibitor: inhibitor 2 h pretreatment, then 1 µM HaloPROTAC3 3 h. It is filed as cell-based, human. The procedure: To investigate the mechanism of action of HaloPROTAC3-induced degradation of CCR2-HaloTag-HiBiT, we pretreated the cells with a variety of inhibitors. […] After 2 h, the cells were treated with vehicle or HaloPROTAC3 (1µM) and degradation was measured after 3 h of HaloPROTAC3 treatment or vehicle control.
Next, we explored whether degradation occurs via the proteasomal or the lysosomal pathway. […] Finally, we included cycloheximide as an inhibitor of protein synthesis.
Fractional RLU values were calculated from the resulting baseline-corrected values by normalizing all values at a given time point to the vehicle-control value. For lytic HiBiT assays, data are presented as % of vehicle-control; for real-time HiBiT assays, data are presented as fractional RLUs, which corresponds to the ratio between the baseline-corrected RLU values of a compound and the RLU values of the vehicle at any given time point. […] To calculate the degradation rate (K) from real-time HiBiT assays, the degradation curves were fitted to a one-phase exponential decay model following the equation Y = (Y0 − Plateau)e^−Kt + Plateau.
In general terms: With HiBiT, luminescence reflects the tagged protein that the partner subunit can reach.

Assay [2] deals with T1, CCR2-HaloTag-HiBiT (UniProt P0A3G2+P41597, A155T/A167V/A172T/A224E/C128F/C176G/D78G/E160K/E257K/H272N/K175M/K195N/L47V/L88M/N227D/S58T/T264A/Y273L/Y87F). It is filed as cell-based, human.
Assay [3] concerns the target T1, CCR2-HaloTag-HiBiT. It is filed as cell-based, human. To be noted: for Dmax ± SEM (maximal degradation): determined at 1 µM, negative values represent an increase in CCR2 levels.
The target of assay [4] is T2, CCR2-HaloTag-HiBiT (Homo sapiens, UniProt P41597).
T2 construct: host or cells: A549 cells, lentiviral transduction, single-cell clones #25, #26, #27
In kind it is cell-based. The text has this:
While the HiBiT luminescence approach provides a good platform for high-throughput screening of targeted protein degradation, integral membrane protein degradation studies benefit from information about their localization. […] To mitigate the need for transfection, we transduced A549 cells with lentiviral particles for stable integration of expression cassettes for CCR2-HaloTag-HiBiT expression constructs, followed by antibiotic selection and limiting dilution to generate single-cell clones.
A549 cells were seeded at 400,000 cells per well in 6 well dishes to be approximately 50% confluent the next day. For seeding 1.5 mL of cell-containing medium was used. A total of 500 µL of lentiviral particles and 1.6 µL of polybrene (Sigma-Aldrich, Merck, Darmstadt, Germany) were added on top, and cells were incubated overnight. The next day, cells were washed two to three times in PBS and a growth medium containing 100 µg/mL of hygromycin B at 100 µg/mL was added. Cells were incubated until non-transduced cells were dead or until transduced cells were confluent (in which case they were split into a bigger flask in a hygromycin selection medium). After selection, cells were diluted to 0.5 cells/200 µL in a growth medium containing 20% FCS, and 96 well plates were seeded with 200 µL per well. Single-cell clones were grown back up to bigger populations and screened by immunofluorescence for HiBiT expression.
A549 CCR2b-HALO-HiBiT expressing cells were seeded onto 384-well plates suitable for high-throughput microscopy (PerkinElmer, Groningen, The Netherlands; Corning, NY, USA) with a density ranging from 2000–4000 cells per well. The next day, plates were treated with different concentrations of HaloPROTAC3 or ent-HaloPROTAC3 using a Tecan D300e digital dispenser. […] Cells were then washed three times in PBS and simultaneously permeabilized and blocked for an hour using a modified blocking buffer (0.1% Triton (v/v), 1% BSA (w/v) (Sigma, A7030, Merck, Darmstadt, Germany)). […] Plates were imaged on either Yokogawa CV7000 or CV8000 systems with appropriate settings for detection of each relevant channel. Images were analyzed using Columbus image analysis.

Assay [5] addresses T1, CCR2-HaloTag-HiBiT. It is filed as cell-based, human. The following applies: 1 µM pretreatment 3 h, then 60 nM CCL2; HEK293T CCR2-HaloTag-HiBiT.
Assay [6] has as its target T1, CCR2-HaloTag-HiBiT. As to the kind of experiment: xCELLigence label-free impedance assay, CCL2 stimulation of HEK293T cells transfected with CCR2-HaloTag-HiBiT. The following applies: HEK293T cells expressing CCR2-HaloTag-HiBiT.

T1 sequence (P41597+P0A3G2 fused with the stated changes): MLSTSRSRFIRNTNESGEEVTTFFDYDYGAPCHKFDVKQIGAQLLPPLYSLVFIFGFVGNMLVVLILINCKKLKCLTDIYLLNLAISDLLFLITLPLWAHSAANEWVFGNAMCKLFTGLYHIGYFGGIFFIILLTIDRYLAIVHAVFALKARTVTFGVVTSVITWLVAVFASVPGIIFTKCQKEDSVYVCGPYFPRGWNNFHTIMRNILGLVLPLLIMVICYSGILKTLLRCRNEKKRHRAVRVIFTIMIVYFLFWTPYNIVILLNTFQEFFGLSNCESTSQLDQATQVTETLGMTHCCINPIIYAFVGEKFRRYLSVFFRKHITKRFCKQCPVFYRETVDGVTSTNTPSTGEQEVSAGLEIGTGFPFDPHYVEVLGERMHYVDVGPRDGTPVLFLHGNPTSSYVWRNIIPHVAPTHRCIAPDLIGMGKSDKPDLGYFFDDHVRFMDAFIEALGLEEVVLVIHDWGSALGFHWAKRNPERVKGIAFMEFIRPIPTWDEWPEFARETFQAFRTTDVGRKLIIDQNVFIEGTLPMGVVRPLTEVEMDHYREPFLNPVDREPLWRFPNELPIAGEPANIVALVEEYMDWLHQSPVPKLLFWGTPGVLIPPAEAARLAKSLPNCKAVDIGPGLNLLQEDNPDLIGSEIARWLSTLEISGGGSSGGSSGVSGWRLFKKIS
T2 sequence (P41597 other isoform, or with tags, fused parts or gaps): as the sequence (P41597+P0A3G2 fused with the stated changes) above

As for `Nc1cccc2c1C(=O)N(C1CCC(=O)NC1=O)C2=O` (stereo not shown) [pomalidomide], the “HaloPROTAC3-mediated CCR2 degradation after pretreatment with the inhibitor” value in assay [1] is “neither pomalidomide nor idasanutlin had an effect”.
Regarding `COc1cc(C(=O)O)ccc1NC(=O)[C@@H]1N[C@@H](CC(C)(C)C)[C@](C#N)(c2ccc(Cl)cc2F)[C@H]1c1cccc(Cl)c1F` [idasanutlin], in assay [1], the “HaloPROTAC3-mediated CCR2 degradation after pretreatment with the inhibitor” value is “neither pomalidomide nor idasanutlin had an effect”.
`CC(C)C[C@H](NC(=O)[C@H](Cc1ccccc1)NC(=O)c1cnccn1)B(O)O` [bortezomib]: the “HaloPROTAC3-mediated CCR2 degradation after pretreatment with the inhibitor” value in assay [1] was “partially or fully recovered”. Besides, in assay [1] (inhibitor 2 h then vehicle 3 h), the “reduction in CCR2 levels, exclusive treatment with inhibitor” value (from here on “reduction in CCR2 levels … with inhibitor”) is reported as ~ 17%.
Consider `C[C@@H]1C[C@@H]([C@H](O)CC2CC(=O)NC(=O)C2)C(=O)[C@@H](C)C1` [cycloheximide], for which the “native degradation rate (Knative) of CCR2-HaloTag-HiBiT” value in assay [2] (10 µM cycloheximide, up to 24 h) was found to be 0.25 ± 0.01 h⁻¹. Also, the “HaloPROTAC3-mediated CCR2 degradation after pretreatment with the inhibitor” value in assay [1] is given as “not affected”. Moreover, the “reduction in CCR2 levels … with inhibitor” value in assay [1] (inhibitor 2 h then vehicle 3 h) is reported as “more than 50%”.
Regarding `NS(=O)(=O)OC[C@@H]1C[C@@H](n2ccc3c(N[C@H]4CCc5ccccc54)ncnc32)C[C@@H]1O` [MLN-4924, Pevonedistat], in assay [1], the “HaloPROTAC3-mediated CCR2 degradation after pretreatment with the inhibitor” value is given as “fully prevented”. Besides, the “reduction in CCR2 levels … with inhibitor” value in assay [1] (inhibitor 2 h then vehicle 3 h) is on record as 24%.
With `Cc1ncsc1-c1ccc(CNC(=O)[C@@H]2C[C@@H](O)CN2C(=O)[C@H](C(C)C)N2Cc3ccccc3C2=O)c(OCCOCCOCCOCCCCCCCl)c1` [HaloPROTAC3], the “decrease in CCR2 levels (luminescent signal) compared to vehicle control” value in assay [3] (1 µM, 24 h, 5 µg plasmid) is ~ 35%. Also, the “CCR2 degraded, time course” value was “Approximately 20%” in assay [3] (1 µM, after 4 h, 5 µg plasmid (Figure S4)) and 26% in assay [3] (1 µM, after 24 h, 5 µg plasmid (Figure S4)). For the same molecule, the “CCR2 degraded, time course (maximum degradation)” value in assay [3] (1 µM, by 6 h, 5 µg plasmid (Figure S4)) was 24%. Besides, the “pDC50 ± SEM (apparent potency of degradation)” value in assay [3] (24 h, 5 µg plasmid) was found to be 7.4 ± 0.01. Besides, the DC50 in assay [3] (24 h, 5 µg plasmid, read-out: DC50 (apparent degradation potency) (converted)) was 42 nM; in assay [4] (A549 clone #25, 24 h) it was 17.1 nM; in assay [4] (A549 clone #26, 24 h) it was 18.1 nM; in assay [4] (A549 clone #27, 24 h), 11.8 nM. Besides, the “Dmax ± SEM (maximal degradation)” value in assay [3] (24 h) is 38 ± 5%. The “degradation of CCR2-HaloTag-HiBiT depending on the protein expression levels” value in assay [3] (summary over lytic and real-time HiBiT assays (Figure 2 and Figure 3)) is on record as 30–80%. Moreover, the “degradation achieved after 3 h treatment” value in assay [2] (1 µM (Figure 3B,F)) was over 70%. Besides, the “degradation rate compared with cycloheximide on its own” value in assay [2] (1 µM HaloPROTAC3 in absence or presence of 10 µM cycloheximide) was “higher than that determined by cycloheximide on its own”. The “degradation rate (Kdeg)” value turned out to be 0.000131 ± 1.1e-05 s⁻¹ in assay [2] (1 µM, 1 µg plasmid); 0.000144 ± 1.1e-05 s⁻¹ in assay [2] (1 µM, 3 µg plasmid, one-phase exponential decay); 0.000114 ± 4.72e-05 s⁻¹ in assay [2] (1 µM, 5 µg plasmid). Also, the “maximal degradation at 24 h” value in assay [2] (1 µM, 1 µg plasmid) is recorded as 89 ± 2%; in assay [2] (1 µM, 3 µg plasmid), 76 ± 4%; in assay [2] (1 µM, 5 µg plasmid), 60 ± 6%. Further, the “degradation reached after 9 h of treatment up to 24 h” value in assay [2] (1 µM, 3 µg plasmid) is listed as at least 90%. In assay [2] (1 µM, 3 µg plasmid), the “time Dmax was maintained” value is ~ 15 h. Besides, the “degradation potency (pDmax50)” value in assay [2] (3 µg plasmid, Dmax at each concentration) amounted to 6.7 ± 0.1. In addition, the “CCR2 degradation by HaloPROTAC3 in the absence of inhibitor” value in assay [1] (1 µM HaloPROTAC3, 3 h) is 32%. Moreover, the “maximal degradation (HiBiT antibody signal)” value in assay [4] (A549 clone #25, 1 µM, 24 h) was 39%. For the same molecule, the “reduction of CCR2-HaloTag-HiBiT levels (HiBiT antibody signal)” value in assay [4] (A549 clone #26, 1 µM, 24 h) is listed as “approximately 80%”; in assay [4] (A549 clone #27, 1 µM, 24 h), “approximately 80%”. The pDC50 was found to be 7.8 ± 0.1 in assay [4] (A549 clone #26, 24 h) and 8.0 ± 0.2 in assay [4] (A549 clone #27, 24 h). Further, in assay [5], the “remaining CCL2 response (AUC first 20 min, normalized to 60 nM CCL2 alone)” value was 25 ± 19%.
As to “CCL2: endogenous chemokine ligand of CCR2”, in assay [6], the “efficacy (Emax) of CCL2” value is on record as 68 ± 8% and the “pEC50 of CCL2-induced impedance increase” value is given as 7.6 ± 0.2. In addition, the concentration giving a half-maximal response (EC50) (as a rule, the concentration needed to bring the measured effect to its halfway point) in assay [6] (read-out: EC50 of CCL2-induced impedance increase) was 29 nM.
Take `CCN(CC)CCCC(C)Nc1ccnc2cc(Cl)ccc12` (stereo not shown) [chloroquine, Chloroquine diphosphate]: in assay [1] (inhibitor 2 h then vehicle 3 h), the “effect on receptor levels, inhibitor on its own” value is on record as “not affected”.
As for `Cc1ncsc1-c1ccc(CNC(=O)[C@H]2C[C@H](O)CN2C(=O)[C@@H](C(C)C)N2Cc3ccccc3C2=O)c(OCCOCCOCCOCCCCCCCl)c1` [ent-HaloPROTAC3], the “decrease in CCR2 levels (luminescent signal) compared to vehicle control” value in assay [3] (1 µM, 24 h, 5 µg plasmid) is on record as “comparable to vehicle control”. Also, the “Dmax ± SEM (maximal degradation)” value in assay [3] (24 h) was −1 ± 4%. Further, the “CCR2 levels upon titration of compound (normalized to vehicle control 100%)” value in assay [3] (multiple concentrations, 24 h, maximal level reached) was “remained unchanged”. Also, the “CCR2 levels over 24 h” value in assay [2] (1 µM, all DNA plasmid concentrations (1, 3, 5 µg; Figure S5)) was “remained unchanged”. In assay [2] (3 µg plasmid, 24 h), the “change of CCR2 levels, multiple concentrations” value is “did not change CCR2 levels at any of the concentrations tested”. Besides, the “effect on HiBiT immunofluorescence signal” value in assay [4] (1 µM, 24 h, A549 clones) is “appeared to increase the signal throughout the cell”. In assay [5], the “remaining CCL2 response (AUC first 20 min, normalized to 60 nM CCL2 alone)” value stood at 85 ± 10%.
As to `CO/C1=C\C(C)=C\[C@@H](C)[C@@H](O)[C@@H](C)C/C(C)=C/C=C/[C@H](OC)[C@@H]([C@@H](C)[C@@H](O)[C@H](C)[C@@]2(O)C[C@@H](O)[C@H](C)[C@@H](C(C)C)O2)OC1=O` [Bafilomycin-A1, Bafilomycin A1], in assay [1] (inhibitor 2 h then vehicle 3 h), the “increase in CCR2-HaloTag-HiBiT levels, exclusive treatment with inhibitor” value was over 30%.
Turning to `CC(C)C[C@@H](C=O)NC(=O)[C@H](CC(C)C)NC(=O)[C@H](CC(C)C)NC(=O)OCc1ccccc1` [MG-132] (Cbz-Leu-Leu-Leu-aldehyde), the “HaloPROTAC3-mediated CCR2 degradation after pretreatment with the inhibitor” value in assay [1] is given as “partially or fully recovered”. Further, the “reduction in CCR2 levels … with inhibitor” value in assay [1] (inhibitor 2 h then vehicle 3 h) is “not observed”.

These data come from PMC11354370, “Inducing Receptor Degradation as a Novel Approach to Target CC Chemokine Receptor 2 (CCR2)” (International Journal of Molecular Sciences, 2024).
